Data from BindingDB's records for doi:10.1021/cb700072n (University of New Mexico Health Sciences Center, 2007).
pKi: −log10 of the molar value.

Legend:
Estrogen receptor = biological target: T1, Estrogen receptor (Homo sapiens, UniProt P03372); assay: Competitive Binding Assay
T1 sequence (P03372 whole entry): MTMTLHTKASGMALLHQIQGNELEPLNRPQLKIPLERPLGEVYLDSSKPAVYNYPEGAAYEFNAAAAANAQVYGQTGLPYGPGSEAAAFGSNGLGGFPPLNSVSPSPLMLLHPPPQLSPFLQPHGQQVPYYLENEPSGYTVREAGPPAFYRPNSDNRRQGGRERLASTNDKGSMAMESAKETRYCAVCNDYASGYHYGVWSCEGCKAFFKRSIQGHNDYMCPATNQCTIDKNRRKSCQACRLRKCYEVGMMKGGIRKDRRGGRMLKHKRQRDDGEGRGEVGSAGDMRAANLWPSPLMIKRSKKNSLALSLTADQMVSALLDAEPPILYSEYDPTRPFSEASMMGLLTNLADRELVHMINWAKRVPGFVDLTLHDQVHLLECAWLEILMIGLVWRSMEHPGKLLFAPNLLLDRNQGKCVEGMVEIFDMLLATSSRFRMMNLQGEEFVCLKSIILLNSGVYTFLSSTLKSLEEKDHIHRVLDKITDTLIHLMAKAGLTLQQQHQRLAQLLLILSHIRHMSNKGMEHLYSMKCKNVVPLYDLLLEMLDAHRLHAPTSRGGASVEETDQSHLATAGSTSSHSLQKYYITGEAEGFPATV
Method: (§1) Competitive binding of estrogen to GPR30 and ER alpha were conducted using COS-7 cells transfected with GPR30-GFP or ER alpha-GFP and fluorescent estrogen, E2-Alexa633 labeled as a reporter.

[1] = biological target: G-protein coupled estrogen receptor 1 (Homo sapiens, UniProt Q99527); assay: Competitive Binding Assay
Sequence of G-protein coupled estrogen receptor 1 (Q99527 whole entry): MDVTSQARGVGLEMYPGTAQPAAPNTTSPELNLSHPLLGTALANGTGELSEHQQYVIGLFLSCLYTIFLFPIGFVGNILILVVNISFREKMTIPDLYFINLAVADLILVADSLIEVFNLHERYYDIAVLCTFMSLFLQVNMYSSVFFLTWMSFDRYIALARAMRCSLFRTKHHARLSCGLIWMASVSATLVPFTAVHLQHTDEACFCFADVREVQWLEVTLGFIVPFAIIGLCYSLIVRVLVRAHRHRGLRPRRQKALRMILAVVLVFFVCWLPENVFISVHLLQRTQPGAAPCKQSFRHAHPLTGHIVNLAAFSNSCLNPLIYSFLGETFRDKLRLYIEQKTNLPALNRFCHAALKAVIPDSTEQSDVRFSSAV
Method: as §1

`C[C@]12CCC3c4ccc(O)cc4CCC3C1CC[C@@]2(O)C#Cc1cccc(C(=O)O)c1` (stereo partly drawn) [E2-COO-] was tested, and the pKi (Estrogen receptor) was 8.70 and the pKi [1] was 7.52.
Work on `CC(C)(C)OC(=O)NCc1ccc(C#C[C@]2(O)CCC3C4CCc5cc(O)ccc5C4CC[C@@]32C)cc1` (stereo partly drawn) [E2-NB] yielded a pKi (Estrogen receptor) of 8.57 and a pKi [1] of 7.80.
With `C[C@]12CCC3c4ccc(O)cc4CCC3C1CC[C@@]2(O)C#Cc1ccc(CN)cc1` (stereo partly drawn) [E2-NH3+] the pKi (Estrogen receptor) was 8.39 and the pKi [1] was 7.60.
Work on `C[C@]12CCC3c4ccc(O)cc4CCC3C1CC[C@@]2(O)C#Cc1ccc([N+](C)(C)C)cc1` (stereo partly drawn) [E2-NMe3+] yielded a pKi (Estrogen receptor) of 8.85 and a pKi [1] of 7.77.
